We go through 18 molecules from patent publication US20160297833A1, “THIENOPYRIMIDINES AS MKNK1 AND MKNK2 INHIBITORS” (BAYER PHARMA AKTIENGESELLSCHAFT, priority 2013, published 2016).

Molecules are shown by their SMILES.

T1 sequence (Q9BUB5 1-424 isoform Q9BUB5-2 T344D): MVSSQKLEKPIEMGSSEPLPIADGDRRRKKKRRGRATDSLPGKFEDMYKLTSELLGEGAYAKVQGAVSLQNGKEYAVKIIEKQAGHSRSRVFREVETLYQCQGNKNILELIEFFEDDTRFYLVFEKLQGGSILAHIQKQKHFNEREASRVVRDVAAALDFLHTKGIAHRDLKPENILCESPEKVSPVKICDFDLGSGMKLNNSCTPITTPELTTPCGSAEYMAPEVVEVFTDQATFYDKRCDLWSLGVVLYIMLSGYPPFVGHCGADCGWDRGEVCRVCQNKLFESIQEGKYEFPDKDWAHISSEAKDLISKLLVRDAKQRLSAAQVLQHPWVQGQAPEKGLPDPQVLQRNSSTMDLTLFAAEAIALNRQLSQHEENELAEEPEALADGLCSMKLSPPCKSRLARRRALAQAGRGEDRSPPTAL

One test has as its target T1, human full-length MKNK1 (Homo sapiens, UniProt Q9BUB5, T385D).
T1 construct: GST (N); purchased Carna Biosciences 02-145; host or cells: insect cells (baculovirus expression system)
In words: MKNK1 kinase high ATP assay (TR-FRET). Particulars: Table 1; MKNK1 kinase high ATP assay, 2 mM ATP; read-out: MKNK1 IC50. In kind it is biochemical. The method, boiled down: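 Full-length human MKNK1 (T385D) preincubated 15 min at 22 °C with compound in HEPES pH 7.5/MgCl2/DTT buffer; reaction with 2 mM ATP (final) and 0.06 μM biotinylated peptide (final), 30 min at 22 °C.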
A word on the IC50: it is the concentration at which inhibition is half-maximal. Take `CC(C)CC(=O)NCCOc1cc2[nH]ncc2cc1Nc1ncnc2sc3c(c12)CC[C@H](C(=O)N(C)C)C3` [Example 271, (7S)—N,N-Dimethyl-4-[(6-{2-[(3-methylbutanoyl)amino]ethoxy}-1H-indazol-5-yl)amino]-5,6,7,8-tetrahydro[1]benzothieno[2,3-d]pyrimidine-7-carboxamide]: the IC50 is 0.5 nM.

Take `CC(C)OC(=O)NC[C@@H](C)Oc1cc2[nH]ncc2cc1Nc1ncnc2sc3c(c12)CC[C@H](C(=O)N(C)C)C3` [Example 261, Propan-2-yl {(2R)-2-[(5-{[(7S)-7-(dimethylcarbamoyl)-5,6,7,8-tetrahydro[1]benzothieno[2,3-d]pyrimidin-4-yl]amino}-1H-indazol-6-yl)oxy]propyl}carbamate]: the IC50 is 3.2 nM. The same measure, in the same setting: the value for `COc1cc2[nH]ncc2cc1Nc1ncnc2sc3c(c12)CC[C@H](C(=O)N1C[C@H]2C[C@@H]1CO2)C3` [Example 34, {(7S)-4-[(6-Methoxy-1H-indazol-5-yl)amino]-5,6,7,8-tetrahydro[1]benzothieno[2,3-d]pyrimidin-7-yl}[(1R,4R)-2-oxa-5-azabicyclo[2.2.1]hept-5-yl]methanone] was 0.5 nM; that for `COc1cc2[nH]ncc2cc1Nc1ncnc2sc3c(c12)CC[C@H](C(=O)N(C)CCn1ccnc1)C3` [Example 171, (7S)—N-[2-(1H-Imidazol-1-yl)ethyl]-4-[(6-methoxy-1H-indazol-5-yl)amino]-N-methyl-5,6,7,8-tetrahydro[1]benzothieno[2,3-d]pyrimidine-7-carboxamide] was 0.4 nM; that for `CN(C)C1CCN(c2cc3[nH]ncc3cc2Nc2ncnc3sc4c(c23)CC[C@H](C(=O)N2C[C@H]3C[C@@H]2CO3)C4)CC1` [Example 154, [(7S)-4-({6-[4-(Dimethylamino)piperidin-1-yl]-1H-indazol-5-yl}amino)-5,6,7,8-tetrahydro[1]benzothieno[2,3-d]pyrimidin-7-yl][(1R,4R)-2-oxa-5-azabicyclo[2.2.1]hept-5-yl]methanone] was 22.9 nM.

Take `CCOc1cc2[nH]ncc2cc1Nc1ncnc2sc3c(c12)CC[C@H](C(=O)N1C[C@@H]2C[C@H]1CO2)C3` [Example 70, {(7S)-4-[(6-Ethoxy-1H-indazol-5-yl)amino]-5,6,7,8-tetrahydro[1]benzothieno[2,3-d]pyrimidin-7-yl}[(1S,4S)-2-oxa-5-azabicyclo[2.2.1]hept-5-yl]methanone]: the IC50 was determined as 0.4 nM. For `CC(C)Oc1cc2[nH]ncc2cc1Nc1ncnc2sc3c(c12)CC[C@H](C(=O)N(C)C)C3` [Example 78, (7S)—N,N-Dimethyl-4-{[6-(propan-2-yloxy)-1H-indazol-5-yl]amino}-5,6,7,8-tetrahydro[1]benzothieno[2,3-d]pyrimidine-7-carboxamide], the IC50 worked out at 0.3 nM. Same read-out and setting: to `CN(C)C(=O)[C@H]1CCc2c(sc3ncnc(Nc4cc5cn[nH]c5cc4OCCCN)c23)C1` [Example 111, (7S)-4-{[6-(3-Aminopropoxy)-1H-indazol-5-yl]amino}-N,N-dimethyl-5,6,7,8-tetrahydro[1]benzothieno[2,3-d]pyrimidine-7-carboxamide] belongs 1.4 nM. The same measure, in the same setting: to `CCC(=O)NCCOc1cc2[nH]ncc2cc1Nc1ncnc2sc3c(c12)CC[C@H](C(=O)N(C)C)C3` [Example 269, (7S)—N,N-Dimethyl-4-({6-[2-(propanoylamino)ethoxy]-1H-indazol-5-yl}amino)-5,6,7,8-tetrahydro[1]benzothieno[2,3-d]pyrimidine-7-carboxamide] belongs 1.3 nM. Still for that read-out and setting: the value for `CSc1cc2[nH]ncc2cc1Nc1ncnc2sc3c(c12)CC[C@H](C(=O)N1C[C@@H](C)O[C@H](C)C1)C3` [Example 247, [(2R,6R)-2,6-Dimethylmorpholin-4-yl][(7S)-4-{[6-(methylsulfanyl)-1H-indazol-5-yl]amino}-5,6,7,8-tetrahydro[1]benzothieno[2,3-d]pyrimidin-7-yl]methanone] was 0.6 nM. As to `COc1cc2[nH]ncc2cc1Nc1ncnc2sc3c(c12)CC[C@H](C(=O)N(C)CCC(=O)N(C)C)C3` [Example 55, (7S)—N-[3-(Dimethylamino)-3-oxopropyl]-4-[(6-methoxy-1H-indazol-5-yl)amino]-N-methyl-5,6,7,8-tetrahydro[1]benzothieno[2,3-d]pyrimidine-7-carboxamide], the IC50 was 0.1 nM.

`COCCN(C)C(=O)[C@H]1CCc2c(sc3ncnc(Nc4cc5cn[nH]c5cc4F)c23)C1` [Example 222, (7S)-4-[(6-Fluoro-1H-indazol-5-yl)amino]-N-(2-methoxyethyl)-N-methyl-5,6,7,8-tetrahydro[1]benzothieno[2,3-d]pyrimidine-7-carboxamide]: the IC50 turned out to be 3.2 nM. Take `COc1cc2[nH]ncc2cc1Nc1ncnc2sc3c(c12)CC[C@H](C(=O)N1C[C@@H]2C[C@H]1CO2)C3` [Example 33, {(7S)-4-[(6-Methoxy-1H-indazol-5-yl)amino]-5,6,7,8-tetrahydro[1]benzothieno[2,3-d]pyrimidin-7-yl}[(1S,4S)-2-oxa-5-azabicyclo[2.2.1]hept-5-yl]methanone]: the IC50 stood at 1.5 nM. As to `C[C@H](N)COc1cc2[nH]ncc2cc1Nc1ncnc2sc3c(c12)CC[C@H](C(=O)N1CCOC[C@@H]1C)C3` [Example 143, {(7S)-4-[(6-{[(2S)-2-Aminopropyl]oxy}-1H-indazol-5-yl)amino]-5,6,7,8-tetrahydro[1]benzothieno[2,3-d]pyrimidin-7-yl}[(3S)-3-methylmorpholin-4-yl]methanone], the IC50 amounted to 3 nM. On to `COc1cc2[nH]ncc2cc1Nc1ncnc2sc3c(c12)CC[C@H](C(=O)N(C)CCCN(C)C)C3` [Example 54, (7S)—N-[3-(Dimethylamino)propyl]-4-[(6-methoxy-1H-indazol-5-yl)amino]-N-methyl-5,6,7,8-tetrahydro[1]benzothieno[2,3-d]pyrimidine-7-carboxamide], for which the IC50 is 0.4 nM.

For `CCN(OC)C(=O)[C@H]1CCc2c(sc3ncnc(Nc4cc5cn[nH]c5cc4OC)c23)C1` [Example 197, (7S)—N-Ethyl-N-methoxy-4-[(6-methoxy-1H-indazol-5-yl)amino]-5,6,7,8-tetrahydro[1]benzothieno[2,3-d]pyrimidine-7-carboxamide], the IC50 was 0.1 nM. On to `CN(C)C(=O)[C@H]1CCc2c(sc3ncnc(Nc4cc5cn[nH]c5cc4NCCNC(=O)OC(C)(C)C)c23)C1` [Example 244, tert-Butyl {2-[(5-{[(7S)-7-(dimethylcarbamoyl)-5,6,7,8-tetrahydro[1]benzothieno[2,3-d]pyrimidin-4-yl]amino}-1H-indazol-6-yl)amino]ethyl}carbamate], for which the IC50 is 48.3 nM.

As for `CC(C)N(C)C(=O)[C@H]1CCc2c(sc3ncnc(Nc4ccc5[nH]ncc5c4)c23)C1` [Example 7, (7S)-4-(1H-Indazol-5-ylamino)-N-methyl-N-(propan-2-yl)-5,6,7,8-tetrahydro[1]benzothieno[2,3-d]pyrimidine-7-carboxamide], the IC50 amounted to 6 nM.

Staying with this test, now noted: Table 2; ratio of the IC50-value of an R-enantiomer and its corresponding S-enantiomer.
Regarding `CC(C)Oc1cc2[nH]ncc2cc1Nc1ncnc2sc3c(c12)CC[C@H](C(=O)N(C)C)C3` [Example 78, (7S)—N,N-Dimethyl-4-{[6-(propan-2-yloxy)-1H-indazol-5-yl]amino}-5,6,7,8-tetrahydro[1]benzothieno[2,3-d]pyrimidine-7-carboxamide], the “Activity-Ratio MKNK1” value is 42.9.
